Source: patent US20260042770A1, “NOVEL SULFONES AND THEIR USE AS NEUROPROTECTIVE AND/OR NEURORESTORATIVE AGENTS” (GENECODE, priority 2022, published 2026)
pEC50: −log10 of the molar value.

Target: T1, GFRα1-RET (Homo sapiens, UniProt P56159)
T1 construct: expressed in transfected cells; host or cells: MG87 murine fibroblasts stably transfected with PathDetect Elk-1, GFRα1 and RET
T1 sequence (P56159 25-429 limits assumed): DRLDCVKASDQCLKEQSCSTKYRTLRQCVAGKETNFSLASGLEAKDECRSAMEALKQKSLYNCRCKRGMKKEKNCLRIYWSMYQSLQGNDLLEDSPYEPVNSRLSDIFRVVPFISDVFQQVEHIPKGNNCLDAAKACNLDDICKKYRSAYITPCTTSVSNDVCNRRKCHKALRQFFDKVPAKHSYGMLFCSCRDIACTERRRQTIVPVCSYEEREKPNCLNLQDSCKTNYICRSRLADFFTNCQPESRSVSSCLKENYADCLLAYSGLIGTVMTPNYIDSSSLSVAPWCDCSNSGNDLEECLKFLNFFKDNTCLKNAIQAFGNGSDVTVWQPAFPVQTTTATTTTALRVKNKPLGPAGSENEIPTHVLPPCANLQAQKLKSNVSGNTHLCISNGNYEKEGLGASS
Experiment: Elk1 luciferase reporter-gene assay in cells expressing GFRα1-RET
Format: cell-based
Conditions: agonist/activator activity of Elk1 signaling; MG87 murine fibroblast stably transfected with PathDetect Elk-1, GFRα1 and RET; 6 concentrations, duplicate, two independent runs
Experimental: For EC50 determination, a dose-response test was performed using 6 concentrations of each tested compound. Dose-response curves were fitted using the sigmoidal dose-response (variable slope) analysis in GraphPad Prism program (Graph Pad Inc) and EC50 of agonist/activator activity was calculated. Dose-response experiments were all performed in duplicate, two times independently.

SMILES	pEC50
O=C(c1ccc(F)cc1Cl)N1C[C@H]2CC[C@@H](C1)N2c1cc(S(=O)(=O)C2CCN(c3ccccc3)CC2)ccc1O [Cpd 030, (2-chloro-4-fluoro-phenyl)-[(1S,5R)-8-[2-hydroxy-5-[(1-phenyl-4-piperidyl)sulfonyl]phenyl]-3,8-diazabicyclo[3.2.1]octan-3-yl]methanone]	> 6.00
O=C(c1ccc(F)cc1Cl)N1C[C@H]2CC[C@@H](C1)N2c1cc(S(=O)(=O)C2CCN(CCc3ccccc3)CC2)ccc1O [Cpd 031, (2-chloro-4-fluoro-phenyl)-[(1S,5R)-8-[2-hydroxy-5-[[1-(2-phenylethyl)-4-piperidyl]sulfonyl]phenyl]-3,8-diazabicyclo[3.2.1]octan-3-yl]methanone]	5.00 to 6.00
Cc1cc(S(=O)(=O)CC(C)(C)C)cc(N2[C@@H]3CC[C@H]2CN(C(=O)c2ccc(F)cc2Cl)C3)c1O [Cpd 032, (2-chloro-4-fluoro-phenyl)-[(1S,5R)-8-[5-(2,2-dimethylpropylsulfonyl)-2-hydroxy-3-methyl-phenyl]-3,8-diazabicyclo[3.2.1]octan-3-yl]methanone]	5.00 to 6.00
CC(C)(C)CS(=O)(=O)c1cc(Cl)c(O)c(N2[C@@H]3CC[C@H]2CN(C(=O)c2ccc(F)cc2Cl)C3)c1 [Cpd 033, [(1S,5R)-8-[3-chloro-5-(2,2-dimethylpropylsulfonyl)-2-hydroxy-phenyl]-3,8-diazabicyclo[3.2.1]octan-3-yl]-(2-chloro-4-fluoro-phenyl)methanone]	> 6.00
CC(C)(C)CS(=O)(=O)c1cc(Cl)c(OCCO)c(N2[C@@H]3CC[C@H]2CN(C(=O)c2ccc(F)cc2Cl)C3)c1 [Cpd 034, [(1S,5R)-8-[3-chloro-5-(2,2-dimethylpropylsulfonyl)-2-(2-hydroxyethoxy)phenyl]-3,8-diazabicyclo[3.2.1]octan-3-yl]-(2-chloro-4-fluoro-phenyl)methanone]	5.00 to 6.00
CC(C)(C)CS(=O)(=O)c1cc(Cl)c(Cl)c(N2[C@@H]3CC[C@H]2CN(C(=O)c2ccc(F)cc2Cl)C3)c1 [Cpd 035, (2-chloro-4-fluoro-phenyl)-[(1S,5R)-8-[2,3-dichloro-5-(2,2-dimethylpropylsulfonyl)phenyl]-3,8-diazabicyclo[3.2.1]octan-3-yl]methanone]	> 6.00
Cc1c(Cl)cc(S(=O)(=O)CC(C)(C)C)cc1N1[C@@H]2CC[C@H]1CN(C(=O)c1ccc(F)cc1Cl)C2 [Cpd 036, [(1S,5R)-8-[3-chloro-5-(2,2-dimethylpropylsulfonyl)-2-methyl-phenyl]-3,8-diazabicyclo[3.2.1]octan-3-yl]-(2-chloro-4-fluoro-phenyl)methanone]	> 6.00
